Measurements reported in article PMC13006724 (Clinical Pharmacology in Drug Development, 2026).

Conditions: human, in vivo, 400 mg
Protocol: Urine PK parameters included cumulative urinary excretion from time zero to time t (Ae0‐t), maximum rate of urinary excretion (Rmax), time of maximum rate of urinary excretion (TRmax), and renal clearance (Clr). PK analyses were performed using Phoenix WinNonlin version 8.0, which was validated by Syneos Health.

Compound: COc1c(N2C[C@@H]3CCCN[C@@H]3C2)c(F)cc2c(=O)c(C(=O)O)cn(C3CC3)c12 [Moxifloxacin]
- AUC0-inf: 28327.2 (4616.5) h*ng/mL
